Source: ChEMBL document CHEMBL1144953, “Anti-androgens with full antagonistic activity toward human prostate tumor LNCaP cells with mutated androgen receptor” (Bioorg Med Chem Lett, 2003)

Target: T1, Androgen receptor (Homo sapiens, UniProt P10275)
T1 sequence (P10275 whole entry): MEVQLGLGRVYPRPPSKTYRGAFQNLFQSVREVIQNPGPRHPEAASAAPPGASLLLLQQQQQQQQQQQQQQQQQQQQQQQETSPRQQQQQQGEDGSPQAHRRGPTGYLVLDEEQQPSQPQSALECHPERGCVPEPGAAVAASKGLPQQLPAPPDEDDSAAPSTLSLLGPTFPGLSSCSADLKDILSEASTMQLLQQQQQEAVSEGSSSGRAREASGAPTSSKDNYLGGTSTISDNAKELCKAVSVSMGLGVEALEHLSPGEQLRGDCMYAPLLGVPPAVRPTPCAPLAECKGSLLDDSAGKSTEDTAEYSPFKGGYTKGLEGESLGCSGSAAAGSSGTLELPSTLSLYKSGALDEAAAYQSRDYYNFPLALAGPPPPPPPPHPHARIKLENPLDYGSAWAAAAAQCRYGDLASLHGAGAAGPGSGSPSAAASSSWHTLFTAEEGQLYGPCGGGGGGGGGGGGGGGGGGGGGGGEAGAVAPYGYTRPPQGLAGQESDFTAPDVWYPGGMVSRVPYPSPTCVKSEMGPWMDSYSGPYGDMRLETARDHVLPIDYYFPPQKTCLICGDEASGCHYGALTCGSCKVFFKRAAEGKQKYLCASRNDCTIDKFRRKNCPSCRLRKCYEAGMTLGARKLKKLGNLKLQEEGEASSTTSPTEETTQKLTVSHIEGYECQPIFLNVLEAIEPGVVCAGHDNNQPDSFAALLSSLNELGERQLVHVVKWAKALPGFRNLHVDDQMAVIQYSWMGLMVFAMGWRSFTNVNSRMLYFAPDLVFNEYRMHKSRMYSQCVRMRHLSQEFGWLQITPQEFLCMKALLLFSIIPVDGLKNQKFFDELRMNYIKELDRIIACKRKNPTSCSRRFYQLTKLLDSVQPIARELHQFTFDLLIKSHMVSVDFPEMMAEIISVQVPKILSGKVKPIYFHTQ
Experiment: Dissociation constant against GST-hARLBD was measured in SC-3 cell by using [3H]testosterone as radioligand
Assay type: cell-based

| Compound | Kd |
| --- | --- |
| O=C1ON=C(c2ccccc2F)/C1=C/c1ccc(N2CCCC2)cc1 | 1.4 nM |
| CCCCN(CCCC)c1ccc(/C=C2\C(=O)ON=C2c2ccccc2)cc1 | 1.4 nM |
| O=C1ON=C(c2ccc(F)cc2)/C1=C/c1ccc(N2CCCC2)cc1 | 1.4 nM |
| O=C1ON=C(c2ccc(O)cc2)/C1=C/c1ccc(N2CCCC2)cc1 | 1.4 nM |
